Assay results reported in PubChem BioAssay AID1963852 (Molecular Pharmacology Branch, DTP, NCI, 2024).

System: 282377-053-R-J1-PDC complex spheroid viability
Test: Anticancer human tumor 282377-053-R-J1-PDC patient-derived colon adenocarcinoma cell line growth inhibition [POLQ]
Details: for IC50: curve of first compound; for viability, T/C: stronger effect = lower value
Method in brief: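 PDC + HUVEC + MSC complex spheroids; POLQ inhibitors ± partner drugs; top conc. at/near clinical Cmax, else 10 microM (SN-38 1 microM), half-log dilutions; 37 degrees C, 5% CO2.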
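Also: spheroids exposed to compounds for seven days.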
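For viability, T/C in this document: 100% = DMSO vehicle control viability.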

**Q.** Which IC50 (second compound 0.0316 µM) does the source give for CCc1cc2c(N3CCc4c(cc(Cn5ccnc5)cc4-c4cn(C)nc4C(F)(F)F)C3=O)cc(C)nc2c(OC)n1 + Nc1ccc(C#CCN(C(=O)Cc2ncc(C(F)(F)F)cc2C(F)(F)F)c2ccc(F)cc2)nn1 here?
**A.** > 10 µM

**Q.** And the IC50 (second compound 0.1 µM)?
**A.** > 10 µM

**Q.** And the IC50 (second compound 0.316 µM)?
**A.** > 10 µM

**Q.** What about the IC50 (second compound 1 µM) of the same compound?
**A.** > 10 µM

**Q.** What about the IC50 (second compound 3.16 µM) of the same compound?
**A.** > 10 µM

**Q.** What about the IC50 (second compound 10 µM) of the same compound?
**A.** > 10 µM

**Q.** What about the viability, T/C (second compound 0.0316 µM, first compound 0.0316 µM) of the same compound?
**A.** 83%

**Q.** And the viability, T/C (second compound 0.0316 µM, first compound 0.1 µM)?
**A.** 81.5%

**Q.** And the viability, T/C (second compound 0.0316 µM, first compound 0.316 µM)?
**A.** 89%

**Q.** What about the viability, T/C (second compound 0.0316 µM, first compound 1 µM) of the same compound?
**A.** 98.2%

**Q.** What about the viability, T/C (second compound 0.0316 µM, first compound 3.16 µM) of the same compound?
**A.** 120%

**Q.** And the viability, T/C (second compound 0.0316 µM, first compound 10 µM)?
**A.** 99.3%

**Q.** What about the viability, T/C (second compound 0.1 µM, first compound 0.0316 µM) of the same compound?
**A.** 84.8%

**Q.** What about the viability, T/C (second compound 0.1 µM, first compound 0.1 µM) of the same compound?
**A.** 82.8%

**Q.** And the viability, T/C (second compound 0.1 µM, first compound 0.316 µM)?
**A.** 82.3%

**Q.** What about the viability, T/C (second compound 0.1 µM, first compound 1 µM) of the same compound?
**A.** 75.1%

**Q.** And the viability, T/C (second compound 0.1 µM, first compound 3.16 µM)?
**A.** 93.4%

**Q.** And the viability, T/C (second compound 0.1 µM, first compound 10 µM)?
**A.** 115%

**Q.** What about the viability, T/C (second compound 0.316 µM, first compound 0.0316 µM) of the same compound?
**A.** 96.6%

**Q.** And the viability, T/C (second compound 0.316 µM, first compound 0.1 µM)?
**A.** 86.2%

**Q.** What about the viability, T/C (second compound 0.316 µM, first compound 0.316 µM) of the same compound?
**A.** 89.4%

**Q.** What about the viability, T/C (second compound 0.316 µM, first compound 1 µM) of the same compound?
**A.** 82.3%

**Q.** And the viability, T/C (second compound 0.316 µM, first compound 3.16 µM)?
**A.** 95.9%

**Q.** What about the viability, T/C (second compound 0.316 µM, first compound 10 µM) of the same compound?
**A.** 96.1%

**Q.** And the viability, T/C (second compound 1 µM, first compound 0.0316 µM)?
**A.** 82.1%

**Q.** And the viability, T/C (second compound 1 µM, first compound 0.1 µM)?
**A.** 88.7%

**Q.** And the viability, T/C (second compound 1 µM, first compound 0.316 µM)?
**A.** 79.8%

**Q.** What about the viability, T/C (second compound 1 µM, first compound 1 µM) of the same compound?
**A.** 96%

**Q.** And the viability, T/C (second compound 1 µM, first compound 3.16 µM)?
**A.** 96.7%

**Q.** What about the viability, T/C (second compound 1 µM, first compound 10 µM) of the same compound?
**A.** 107%

**Q.** What about the viability, T/C (second compound 3.16 µM, first compound 0.0316 µM) of the same compound?
**A.** 95.6%

**Q.** And the viability, T/C (second compound 3.16 µM, first compound 0.1 µM)?
**A.** 91.3%

**Q.** What about the viability, T/C (second compound 3.16 µM, first compound 0.316 µM) of the same compound?
**A.** 85%

**Q.** And the viability, T/C (second compound 3.16 µM, first compound 1 µM)?
**A.** 106%

**Q.** What about the viability, T/C (second compound 3.16 µM, first compound 3.16 µM) of the same compound?
**A.** 90.5%

**Q.** What about the viability, T/C (second compound 3.16 µM, first compound 10 µM) of the same compound?
**A.** 108%

**Q.** And the viability, T/C (second compound 10 µM, first compound 0.0316 µM)?
**A.** 108%

**Q.** What about the viability, T/C (second compound 10 µM, first compound 0.1 µM) of the same compound?
**A.** 102%

**Q.** And the viability, T/C (second compound 10 µM, first compound 0.316 µM)?
**A.** 125%

**Q.** What about the viability, T/C (second compound 10 µM, first compound 1 µM) of the same compound?
**A.** 107%

**Q.** What about the viability, T/C (second compound 10 µM, first compound 3.16 µM) of the same compound?
**A.** 113%

**Q.** What about the viability, T/C (second compound 10 µM, first compound 10 µM) of the same compound?
**A.** 115%
